# Literature values as cited in US5730986A (priority 1995, dated 1998).
# Legend:
# [1] = in vivo
# pepsinogen = conditions: rat stomach
smiles,measurement,setting,value
C/C=C(\C)C(=O)O[C@H]1C[C@@H](OC(C)=O)[C@@]2(C(=O)OC)CO[C@H]3[C@@H](O)[C@@](C)([C@]45O[C@@]4(C)[C@H]4C[C@@H]5O[C@@H]5OC=C[C@@]54O)[C@H]4[C@]1(CO[C@]4(O)C(=O)OC)[C@@H]32 [Azadirachtin],inhibition of the development of malarial parasites,malarial parasites,inhibitory to the development of malarial parasites
same,activity against larva,larva of P. xylostella L,active against larva of P. xylostella L
same,pesticide properties,insects,"phagorepellent, antifeadent and systemic growth disruptor properties in insects"
[Mg+2].[OH-].[OH-] [Mg(OH)2],adverse reactions,[1],loose stools or diarrhea
CN/C(=N/CCSCc1nc[nH]c1C)NC#N [cimetidine],inhibition of cytochrome P450-catalyzed drug oxidation and hydroxylation of estradiol,cytochrome P450,inhibits cytochrome P450 -catalyzed drug oxidation and hydroxylation of estradiol
COc1ccc2[nH]c([S+]([O-])Cc3ncc(C)c(OC)c3C)nc2c1 (stereo not drawn) [omeprazole],"secretion, synthesis and gene expression of pepsinogen",pepsinogen,"reduces the secretion, synthesis and gene expression of pepsinogen"
